According to ChEMBL document CHEMBL1201862, “PubChem BioAssay data set” (2004):
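1) Cells in 96-well plates. 2) Compound, 48 h, 5 concentrations. 3) Linear interpolation between surrounding doses. 4) Unreached endpoint = highest concentration. Abbreviation: GI50, concentration required for 50% inhibition of growth.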 Active and inactive are the calls of the source. Rule as the data show it: active = GI50 up to about 1.1 µM and inactive = higher.

What was measured:
Assay in all cases: growth of human tumour cells (NCI), 48 h
[1] = tested on: 786-0
[2] = tested on: A549
[3] = tested on: ACHN
[4] = tested on: DU-145
[5] = tested on: HOP-92
[6] = tested on: K562
[7] = tested on: LOX IMVI
[8] = tested on: MDA-MB-231
[9] = tested on: Malme-3M
[10] = tested on: NCI-H23
[11] = tested on: NCI-H460
[12] = tested on: NCI-H522
[13] = tested on: SF-539
[14] = tested on: SK-MEL-2
[15] = tested on: SK-MEL-5
[16] = tested on: SK-OV-3
[17] = tested on: SN12C
[18] = tested on: SW-620
[19] = tested on: T47D
[20] = tested on: UO-31

Measured: GI50

COc1ccc(N2C(=O)C3c4[nH]c5ccccc5c4C4C(C)CCCC4C3C2=O)cc1 (stereo not given)
inactive: [1] 17.5 µM | [2] > 45.1 µM | [3] 47.8 µM | [4] > 83 µM | [5] 35.1 µM | [6] 9.14 µM | [7] 46.5 µM | [8] 20.4 µM | [9] 8.69 µM | [10] 54.7 µM | [11] > 63.8 µM | [12] 7.94 µM | [13] > 43.4 µM | [14] 44.6 µM | [15] 35 µM | [16] > 81.3 µM | [17] 40.9 µM | [18] > 53 µM | [19] > 78.7 µM | [20] > 76.7 µM

O=C(/N=S(/NC(=O)c1ccccc1)C(Cl)(Cl)Cl)c1ccccc1 (stereo not given)
inactive: [1] 28.1 µM | [2] > 56.9 µM | [3] 18.4 µM | [4] 53.5 µM | [5] 32.3 µM | [6] 8.91 µM | [7] 10.6 µM | [8] 33.7 µM | [9] 17.5 µM | [10] 12.4 µM | [11] 30.5 µM | [12] 30.3 µM | [13] 21.1 µM | [14] 31.9 µM | [15] 14.3 µM | [16] > 31.6 µM | [17] 24.7 µM | [18] 3.57 µM | [19] 26.9 µM | [20] 16.3 µM

O=c1oc2ccc3ccccc3c2cc1-c1cn2ccsc2n1
inactive: [1] 17.9 µM | [2] 49.9 µM | [3] 16.1 µM | [4] 19.9 µM | [5] 13 µM | [6] 17.3 µM | [7] 15.8 µM | [8] 14.1 µM | [9] 21.2 µM | [10] 25.2 µM | [11] 51.5 µM | [12] 17.1 µM | [13] 20.7 µM | [14] > 100 µM | [15] 15.4 µM | [16] > 100 µM | [17] 28.4 µM | [18] 16.8 µM | [19] 13 µM | [20] 14.6 µM

O=C(CCCCCNC(=O)c1ccc(Cl)cc1)NO
inactive: [1] 7.03 µM | [2] 8.24 µM | [3] 5.19 µM | [4] 4.17 µM | [5] 2.81 µM | [6] 2.84 µM | [7] 4.76 µM | [8] 3.61 µM | [9] 2.61 µM | [10] 5.97 µM | [11] 4.07 µM | [12] 2.19 µM | [13] 5.55 µM | [14] 2.33 µM | [15] 3.24 µM | [16] 6.38 µM | [17] 5.51 µM | [18] 2.82 µM | [19] 1.41 µM | [20] 6.53 µM

Nc1nc(Cl)cc(Oc2ccc(Cl)cc2)n1
inactive: [1] > 59 µM | [2] > 100 µM | [3] 31.4 µM | [4] > 56.2 µM | [5] 23.2 µM | [6] > 55.8 µM | [7] > 48.3 µM | [8] > 56.1 µM | [9] 34.3 µM | [10] 29.5 µM | [11] > 54.7 µM | [12] 22.6 µM | [13] > 50.7 µM | [14] > 100 µM | [15] > 56.6 µM | [16] > 55.2 µM | [17] > 51.9 µM | [18] > 58.6 µM | [19] 32.4 µM | [20] 29.9 µM
